Reference: PubChem BioAssay AID1845207 (Molecular Pharmacology Branch, DTP, NCI, 2023)
pIC50: −log10 of the molar value.

Test system: NCI-H1876 tumor spheroid viability
Assay: Anticancer human tumor NCI-H1876 cell line growth inhibition;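 further: spheroids exposed to compounds for seven days before the viability read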;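 on viability, T/C: percent of DMSO vehicle control viability so 100% = vehicle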
Conditions: spheroids with HUVEC and MSC; for pIC50: curve of first compound; for viability, T/C: stronger effect = lower value; active means viability on the fitted dose curve at most 10% of control; inactive means the rest
How it was run: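 Complex tumor spheroids combined malignant cells with endothelial cells and mesenchymal stem cells. DNA-damaging drugs and DNA repair inhibitors were tested alone and in combination, at half-log dilutions down from clinical Cmax (top 10 microM if Cmax unknown), 0.25% DMSO final.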

[1] = second compound 1 µM, first compound 0.0316 µM
[2] = second compound 1 µM, first compound 0.1 µM
[3] = second compound 1 µM, first compound 0.316 µM
[4] = second compound 1 µM, first compound 1 µM
[5] = second compound 1 µM, first compound 3.16 µM
[6] = second compound 1 µM, first compound 10 µM
[7] = second compound 3.16 µM, first compound 0.0316 µM
[8] = second compound 3.16 µM, first compound 0.1 µM
[9] = second compound 3.16 µM, first compound 0.316 µM
[10] = second compound 3.16 µM, first compound 1 µM
[11] = second compound 3.16 µM, first compound 3.16 µM
[12] = second compound 3.16 µM, first compound 10 µM
[13] = second compound 10 µM, first compound 0.0316 µM
[14] = second compound 10 µM, first compound 0.1 µM
[15] = second compound 10 µM, first compound 0.316 µM
[16] = second compound 10 µM, first compound 1 µM
[17] = second compound 10 µM, first compound 3.16 µM
[18] = second compound 10 µM, first compound 10 µM
[19] = second compound 31.6 µM, first compound 0.0316 µM
[20] = second compound 31.6 µM, first compound 0.1 µM
[21] = second compound 31.6 µM, first compound 0.316 µM
[22] = second compound 31.6 µM, first compound 1 µM
[23] = second compound 31.6 µM, first compound 3.16 µM
[24] = second compound 31.6 µM, first compound 10 µM
[25] = second compound 100 µM, first compound 0.0316 µM
[26] = second compound 100 µM, first compound 0.1 µM
[27] = second compound 100 µM, first compound 0.316 µM
[28] = second compound 100 µM, first compound 1 µM
[29] = second compound 100 µM, first compound 3.16 µM
[30] = second compound 100 µM, first compound 10 µM

COc1cc(C)[nH]c(=O)c1CN1CCc2c(Cl)cc(C(OC)C3COC3)c(Cl)c2C1=O (stereo not given) + Cn1nnc2c(C(N)=O)ncn2c1=O
inactive: viability, T/C [1] 112% | viability, T/C [2] 108% | viability, T/C [3] 109% | viability, T/C [4] 90.8% | viability, T/C [5] 92.7% | viability, T/C [6] 70.4% | viability, T/C [7] 117% | viability, T/C [8] 117% | viability, T/C [9] 110% | viability, T/C [10] 102% | viability, T/C [11] 89.9% | viability, T/C [12] 75.4% | viability, T/C [13] 108% | viability, T/C [14] 109% | viability, T/C [15] 107% | viability, T/C [16] 100% | viability, T/C [17] 95% | viability, T/C [18] 79.1% | viability, T/C [19] 108% | viability, T/C [20] 107% | viability, T/C [21] 107% | viability, T/C [22] 102% | viability, T/C [23] 86.5% | viability, T/C [24] 71.3% | viability, T/C [25] 92.2% | viability, T/C [26] 91.4% | viability, T/C [27] 81.2% | viability, T/C [28] 81.4% | viability, T/C [29] 81.7% | viability, T/C [30] 72.3%
< 5.00: pIC50 (second compound 1 µM) | pIC50 (second compound 3.16 µM) | pIC50 (second compound 10 µM) | pIC50 (second compound 31.6 µM) | pIC50 (second compound 100 µM)

Cc1cc(C)c(CNC(=O)c2cc(-c3ccc(CN4CCOCC4)cc3)cc3c2cnn3C2CCCC2)c(=O)[nH]1 + Cn1nnc2c(C(N)=O)ncn2c1=O
active: viability, T/C [6] 9.14% | viability, T/C [30] 8.6%
6.15: pIC50 (second compound 1 µM)
inactive: viability, T/C [1] 93.8% | viability, T/C [2] 79.2% | viability, T/C [3] 60.2% | viability, T/C [4] 44.8% | viability, T/C [5] 29.3% | viability, T/C [7] 85.7% | viability, T/C [8] 78.6% | viability, T/C [9] 64% | viability, T/C [10] 49.8% | viability, T/C [11] 27.2% | viability, T/C [12] 12.2% | viability, T/C [13] 88.7% | viability, T/C [14] 58.5% | viability, T/C [15] 61.8% | viability, T/C [16] 46.8% | viability, T/C [17] 26.6% | viability, T/C [18] 13.3% | viability, T/C [19] 53.8% | viability, T/C [20] 74.6% | viability, T/C [21] 59.3% | viability, T/C [22] 44.7% | viability, T/C [23] 26.3% | viability, T/C [24] 10.7% | viability, T/C [25] 58.8% | viability, T/C [26] 52.3% | viability, T/C [27] 47% | viability, T/C [28] 39.8% | viability, T/C [29] 25.2%
6.26: pIC50 (second compound 10 µM)
6.12: pIC50 (second compound 31.6 µM)
6.06: pIC50 (second compound 3.16 µM)
6.70: pIC50 (second compound 100 µM)

COc1cc(C)[nH]c(=O)c1CN1CCc2c(Cl)cc(C(OC)C3COC3)c(Cl)c2C1=O (stereo not given) + COc1cc2c(cc1O)CCNC21CSC2c3c(OC(C)=O)c(C)c4c(c3C(COC1=O)N1C(O)C3Cc5cc(C)c(OC)c(O)c5C(C21)N3C)OCO4
< 5.00: pIC50 (second compound 30 pM) | pIC50 (second compound 94.9 pM)
active: viability, T/C (second compound 0.000949 µM, first compound 0.0316 µM) 2.52% | viability, T/C (second compound 0.000949 µM, first compound 0.1 µM) 2.44% | viability, T/C (second compound 0.000949 µM, first compound 0.316 µM) 2.38% | viability, T/C (second compound 0.000949 µM, first compound 1 µM) 2.44% | viability, T/C (second compound 0.000949 µM, first compound 3.16 µM) 2.06% | viability, T/C (second compound 0.000949 µM, first compound 10 µM) 2.03% | viability, T/C (second compound 0.003 µM, first compound 0.0316 µM) 0.75% | viability, T/C (second compound 0.003 µM, first compound 0.1 µM) 0.84% | viability, T/C (second compound 0.003 µM, first compound 0.316 µM) 0.98% | viability, T/C (second compound 0.003 µM, first compound 1 µM) 0.57% | viability, T/C (second compound 0.003 µM, first compound 3.16 µM) 0.7% | viability, T/C (second compound 0.003 µM, first compound 10 µM) 0.93%
> 7.50: pIC50 (second compound 0.0003 µM) | pIC50 (second compound 0.000949 µM) | pIC50 (second compound 0.003 µM)
inactive: viability, T/C (second compound 30 pM, first compound 0.0316 µM) 99.7% | viability, T/C (second compound 30 pM, first compound 0.1 µM) 104% | viability, T/C (second compound 30 pM, first compound 0.316 µM) 96.9% | viability, T/C (second compound 30 pM, first compound 1 µM) 97.6% | viability, T/C (second compound 30 pM, first compound 3.16 µM) 94.5% | viability, T/C (second compound 30 pM, first compound 10 µM) 90.5% | viability, T/C (second compound 94.9 pM, first compound 0.0316 µM) 91.6% | viability, T/C (second compound 94.9 pM, first compound 0.1 µM) 89.6% | viability, T/C (second compound 94.9 pM, first compound 0.316 µM) 89.5% | viability, T/C (second compound 94.9 pM, first compound 1 µM) 86.9% | viability, T/C (second compound 94.9 pM, first compound 3.16 µM) 81.9% | viability, T/C (second compound 94.9 pM, first compound 10 µM) 76.7% | viability, T/C (second compound 0.0003 µM, first compound 0.0316 µM) 22% | viability, T/C (second compound 0.0003 µM, first compound 0.1 µM) 21.2% | viability, T/C (second compound 0.0003 µM, first compound 0.316 µM) 23.9% | viability, T/C (second compound 0.0003 µM, first compound 1 µM) 20.5% | viability, T/C (second compound 0.0003 µM, first compound 3.16 µM) 19.1% | viability, T/C (second compound 0.0003 µM, first compound 10 µM) 14%
